Each structure is given as a SMILES string.

IC50 data for 22 compounds are collected here from patent US11325938B2, “CD73 inhibitors” (ORIC Pharmaceuticals, Inc., priority 2018, dated 2022).

This assay concerns the target CD73 (Homo sapiens (Human), UniProt P21589). As to the kind of experiment: Biochemical assay: inhibition of CD73 activity (AMP hydrolysis, Malachite Green readout). As to conditions: CD73 0.3208 nM, AMP 15 μM, 25 mM Tris-HCl pH 7.4, RT, absorbance 620 nm. A digest of the protocol: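 Phosphate from AMP hydrolysis (15 μM AMP, 10 min, RT) was detected by Malachite Green absorbance to give IC50s. Enzyme at 320 pM was first exposed 15 min to compounds, dosed from 100 μM in ½-log steps, in Tris pH 7.4 buffer with MgCl2, Brij-35 and BSA.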

Sequence of CD73 (P21589 27-574): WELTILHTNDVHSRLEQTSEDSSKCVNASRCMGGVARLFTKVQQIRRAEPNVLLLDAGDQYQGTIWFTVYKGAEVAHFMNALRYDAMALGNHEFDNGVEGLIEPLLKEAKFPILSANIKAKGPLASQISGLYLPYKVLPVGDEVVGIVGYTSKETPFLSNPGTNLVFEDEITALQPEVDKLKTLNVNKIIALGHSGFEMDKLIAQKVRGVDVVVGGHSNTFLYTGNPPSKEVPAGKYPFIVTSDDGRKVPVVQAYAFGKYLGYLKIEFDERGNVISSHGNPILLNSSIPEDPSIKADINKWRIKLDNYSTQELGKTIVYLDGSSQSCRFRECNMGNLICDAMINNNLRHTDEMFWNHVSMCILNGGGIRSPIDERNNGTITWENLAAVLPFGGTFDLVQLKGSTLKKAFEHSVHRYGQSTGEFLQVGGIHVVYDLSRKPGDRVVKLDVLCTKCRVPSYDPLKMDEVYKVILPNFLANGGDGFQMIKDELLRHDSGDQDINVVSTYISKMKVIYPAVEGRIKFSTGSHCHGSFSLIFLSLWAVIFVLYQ

In turn, `O=P(O)(O)C(CO)(CO)OC[C@H]1O[C@@H](n2ncc3c(NC4CCC4)nc(Cl)nc32)[C@H](O)[C@@H]1O` [Example 116, (2-(((2R,3S,4R,5R)-5-(6-chloro-4-(cyclobutylamino)-1H-pyrazolo[3,4-d]pyrimidin-1-yl)-3,4-dihydroxytetrahydrofuran-2-yl)methoxy)-1,3-dihydroxypropan-2-yl)phosphonic acid] yielded a 50% inhibitory concentration (IC50) not above 100 nM.

`O=P(O)(O)COC[C@H]1O[C@@H](n2nnc3c(NC4CCCC4)cc(Cl)nc32)[C@H](O)[C@@H]1O` [Example 17, ((((2R,3S,4R,5R)-5-(5-Chloro-7-(cyclopentylamino)-3H-[1,2,3]triazolo[4,5-b]pyridin-3-yl)-3,4-dihydroxytetrahydrofuran-2-yl)methoxy)methyl)phosphonic acid] had an IC50 of 100 to 1000 nM.

`O=P(O)(O)C(CO)(CO)OC[C@H]1O[C@@H](n2ncc3c(NCC4CC4)nc(Cl)nc32)[C@H](O)[C@@H]1O` [Example 132, (2-(((2R,3S,4R,5R)-5-(6-chloro-4-((cyclopropylmethyl)amino)-1H-pyrazolo[3,4-d]pyrimidin-1-yl)-3,4-dihydroxytetrahydrofuran-2-yl)methoxy)-1,3-dihydroxypropan-2-yl)phosphonic acid] yielded an IC50 not above 100 nM.

Take `CCC(OC[C@H]1O[C@@H](n2ncc3c(NC4CCCC4)nc(Cl)nc32)[C@H](O)[C@@H]1O)P(=O)(O)O` (stereo partly drawn) [Example 14, (1-(((2R,3S,4R,5R)-5-(6-chloro-4-(cyclopentylamino)-1H-pyrazolo[3,4-d]pyrimidin-1-yl)-3,4-dihydroxytetrahydrofuran-2-yl)methoxy)propyl)phosphonic acid]: the half-maximal inhibitory concentration (IC50) was not above 100 nM.

In turn, `O=P(O)(O)C(CO)(CO)OC[C@H]1O[C@@H](n2ncc3c(N[C@@H]4CCc5ccccc54)nc(Cl)nc32)[C@H](O)[C@@H]1O` [Example 113, (2-(((2R,3S,4R,5R)-5-(6-chloro-4-(((R)-2,3-dihydro-1H-inden-1-yl)amino)-1H-pyrazolo[3,4-d]pyrimidin-1-yl)-3,4-dihydroxytetrahydrofuran-2-yl)methoxy)-1,3-dihydroxypropan-2-yl)phosphonic acid] had an IC50 not above 100 nM.

As for `O=P(O)(O)COC[C@H]1O[C@@H](n2nnc3c(NCc4cccc(Cl)c4)cc(Cl)nc32)[C@H](O)[C@@H]1O` [Example 22, ((((2R,3S,4R,5R)-5-(5-chloro-7-((3-chlorobenzyl)amino)-3H-[1,2,3]triazolo[4,5-b]pyridin-3-yl)-3,4-dihydroxytetrahydrofuran-2-yl)methoxy)methyl)phosphonic acid], the IC50 was not above 100 nM.

For the compound `COCC(C)(OC[C@H]1O[C@@H](n2ncc3c(NC4CCCC4)cc(Cl)nc32)[C@H](O)[C@@H]1O)P(=O)(O)O` (stereo partly drawn) [Example 111, (2-(((2R,3S,4R,5R)-5-(6-chloro-4-(cyclopentylamino)-1H-pyrazolo[3,4-b]pyridin-1-yl)-3,4-dihydroxytetrahydrofuran-2-yl)methoxy)-1-methoxypropan-2-yl)phosphonic acid], the 50% inhibitory concentration (IC50) is not above 100 nM.

`O=P(O)(O)[C@@H](CO)OC[C@H]1O[C@@H](n2nnc3c(NC4CCCC4)cc(Cl)nc32)[C@H](O)[C@@H]1O` [Example 149, ((S)-1-(((2R,3S,4R,5R)-5-(5-chloro-7-(cyclopentylamino)-3H-[1,2,3]triazolo[4,5-b]pyridin-3-yl)-3,4-dihydroxytetrahydrofuran-2-yl)methoxy)-2-hydroxyethyl)phosphonic acid] displayed an IC50 not above 100 nM.

For `CC1(Nc2nc(Cl)nc3c2cnn3[C@@H]2O[C@H](CO[C@@](C)(CO)P(=O)(O)O)[C@@H](O)[C@H]2O)CCCC1` [Example 105, ((R)-2-(((2R,3S,4R,5R)-5-(6-chloro-4-((1-methylcyclopentyl)amino)-1H-pyrazolo[3,4-d]pyrimidin-1-yl)-3,4-dihydroxytetrahydrofuran-2-yl)methoxy)-1-hydroxypropan-2-yl)phosphonic acid], the IC50 was not above 100 nM.

Compound `O=P(O)(O)C(CO)(CCO)OC[C@H]1O[C@@H](n2ncc3c(NC4CCCC4)nc(Cl)nc32)[C@H](O)[C@@H]1O` (stereo partly drawn) [Example 36, (2-(((2R,3S,4R,5R)-5-(6-chloro-4-(cyclopentylamino)-1H-pyrazolo[3,4-d]pyrimidin-1-yl)-3,4-dihydroxytetrahydrofuran-2-yl)methoxy)-1,4-dihydroxybutan-2-yl)phosphonic acid] came in with an IC50 not above 100 nM.

On to `CC(C)(O)C#Cc1nc(NC2CCCC2)c2cnn([C@@H]3O[C@H](COC(CO)(CO)P(=O)(O)O)[C@@H](O)[C@H]3O)c2n1` (racemic) [Example 224, rac-(2-(((2R,3S,4R,5R)-5-(4-(cyclopentylamino)-6-(3-hydroxy-3-methylbut-1-yn-1-yl)-1H-pyrazolo[3,4-d]pyrimidin-1-yl)-3,4-dihydroxytetrahydrofuran-2-yl)methoxy)-1,3-dihydroxypropan-2-yl)phosphonic acid], for which the IC50 is not above 100 nM.

As for `NC(=O)OCC(CO)(OC[C@H]1O[C@@H](n2ncc3c(NC4CCCC4)nc(Cl)nc32)[C@H](O)[C@@H]1O)P(=O)(O)O` (mixture of isomers) [Example 178, rac-(1-(carbamoyloxy)-2-(((2R,3S,4R,5R)-5-(6-chloro-4-(cyclopentylamino)-1H-pyrazolo[3,4-d]pyrimidin-1-yl)-3,4-dihydroxytetrahydrofuran-2-yl)methoxy)-3-hydroxypropan-2-yl)phosphonic acid], the IC50 is not above 100 nM.

As to `O=C(O)COCC(CO)(OC[C@H]1O[C@@H](n2ncc3c(NC4CCCC4)nc(Cl)nc32)[C@H](O)[C@@H]1O)P(=O)(O)O` (mixture of isomers) [Example 198, rac-2-(2-(((2R,3S,4R,5R)-5-(6-chloro-4-(cyclopentylamino)-1H-pyrazolo[3,4-d]pyrimidin-1-yl)-3,4-dihydroxytetrahydrofuran-2-yl)methoxy)-3-hydroxy-2-phosphonopropoxy)acetic acid], the IC50 was not above 100 nM.

`Cn1nnc(CC(CO)(OC[C@H]2O[C@@H](n3ncc4c(NC5CCCC5)nc(Cl)nc43)[C@H](O)[C@@H]2O)P(=O)(O)O)n1` (stereo partly drawn) [Example 96, (2-(((2R,3S,4R,5R)-5-(6-chloro-4-(cyclopentylamino)-1H-pyrazolo[3,4-d]pyrimidin-1-yl)-3,4-dihydroxytetrahydrofuran-2-yl)methoxy)-1-hydroxy-3-(2-methyl-2H-tetrazol-5-yl)propan-2-yl)phosphonic acid] returned an IC50 not above 100 nM.

`C[C@H](OC[C@H]1O[C@@H](n2ncc3c(NC4CCCC4)nc(Cl)nc32)[C@H](O)[C@@H]1O)P(=O)(O)O` [Example 33, ((R)-1-(((2R,3S,4R,5R)-5-(6-chloro-4-(cyclopentylamino)-1H-pyrazolo[3,4-d]pyrimidin-1-yl)-3,4-dihydroxytetrahydrofuran-2-yl)methoxy)ethyl)phosphonic acid]: the IC50 is not above 100 nM.

As to `CC(CO)(OC[C@H]1O[C@@H](n2ccc3c(NC4CCCC4)nc(Cl)nc32)[C@H](O)[C@@H]1O)P(=O)(O)O` (stereo partly drawn) [Example 91, (2-(((2R,3S,4R,5R)-5-(2-Chloro-4-(cyclopentylamino)-7H-pyrrolo[2,3-d]pyrimidin-7-yl)-3,4-dihydroxytetrahydrofuran-2-yl)methoxy)-1-hydroxypropan-2-yl)phosphonic acid], the IC50 is not above 100 nM.

For `COCC(C)(OC[C@H]1O[C@@H](n2ncc3c(N[C@@H]4CCc5ccccc54)nc(Cl)nc32)[C@H](O)[C@@H]1O)P(=O)(O)O` (stereo partly drawn) [Example 77, (2-(((2R,3S,4R,5R)-5-(6-chloro-4-(((R)-2,3-dihydro-1H-inden-1-yl)amino)-1H-pyrazolo[3,4-d]pyrimidin-1-yl)-3,4-dihydroxytetrahydrofuran-2-yl)methoxy)-1-methoxypropan-2-yl)phosphonic acid], the IC50 is not above 100 nM.

Compound `CC(CO)(OC[C@H]1O[C@@H](n2nnc3c(NC4CCCC4)cc(Cl)nc32)[C@H](O)[C@@H]1O)P(=O)(O)O` (stereo partly drawn) [Example 66, (2-(((2R,3S,4R,5R)-5-(5-chloro-7-(cyclopentylamino)-3H-[1,2,3]triazolo[4,5-b]pyridin-3-yl)-3,4-dihydroxytetrahydrofuran-2-yl)methoxy)-1-hydroxypropan-2-yl)phosphonic acid] displayed an IC50 not above 100 nM.

The compound `CCOCC(C)(OC[C@H]1O[C@@H](n2ncc3c(NC4CCCC4)nc(Cl)nc32)[C@H](O)[C@@H]1O)P(=O)(O)O` (stereo partly drawn) [Example 156, (2-(((2R,3S,4R,5R)-5-(6-chloro-4-(cyclopentylamino)-1H-pyrazolo[3,4-d]pyrimidin-1-yl)-3,4-dihydroxytetrahydrofuran-2-yl)methoxy)-1-ethoxypropan-2-yl)phosphonic acid] gave an IC50 not above 100 nM.

The compound `O=P(O)(O)[C@@H](Cc1ccccc1)S(=O)(=O)C[C@H]1O[C@@H](n2ncc3c(NC4CCCC4)nc(Cl)nc32)[C@H](O)[C@@H]1O` [Example 10, ((R)-1-((((2S,3S,4R,5R)-5-(6-chloro-4-(cyclopentylamino)-1H-pyrazolo[3,4-d]pyrimidin-1-yl)-3,4-dihydroxytetrahydrofuran-2-yl)methyl)sulfonyl)-2-phenylethyl)phosphonic acid] had an IC50 not above 100 nM.

`C[C@@](CO)(OC[C@H]1O[C@@H](n2ncc3c(NC4CCCC4)nc(C#CCO)nc32)[C@H](O)[C@@H]1O)P(=O)(O)O` (racemic) [Example 205, rac-((R)-2-(((2R,3S,4R,5R)-5-(4-(cyclopentylamino)-6-(3-hydroxyprop-1-yn-1-yl)-1H-pyrazolo[3,4-d]pyrimidin-1-yl)-3,4-dihydroxytetrahydrofuran-2-yl)methoxy)-1-hydroxypropan-2-yl)phosphonic acid] gave an IC50 not above 100 nM.

Consider `C[C@@](CO)(OC[C@H]1O[C@@H](n2ncc3c(N[C@@H]4CCc5ccc(F)cc54)nc(Cl)nc32)[C@H](O)[C@@H]1O)P(=O)(O)O` [Example 99, ((R)-2-(((2R,3S,4R,5R)-5-(6-chloro-4-(((R)-6-fluoro-2,3-dihydro-1H-inden-1-yl)amino)-1H-pyrazolo[3,4-d]pyrimidin-1-yl)-3,4-dihydroxytetrahydrofuran-2-yl)methoxy)-1-hydroxypropan-2-yl)phosphonic acid], for which the IC50 was not above 100 nM.

What is called IC50 is the concentration needed to halve the response being measured. Read a high IC50 as weaker potency.
